From patent publication US6441175B1, “1-(N'-arylalkylaminoalkyl)aminoisoquinolines: a new class of dopamine receptor subtype” (Neurogen Corporation, priority 1997, dated 2002)

Columns and labels:
D2 receptors = target: T1, D2 receptors (Chlorocebus aethiops, UniProt P52702); assay: Assay for D2 and D4 receptor binding activity (COS cells, 3H-YM 09151-2), D2; design: species or system African Green monkey; details: recombinant D2 in COS cells; 0.5 nM 3H-YM 09151-2
T1 construct: expressed in transfected cells; host or cells: COS cells
Description: (§1) Assay For D2 And D4 Receptor Binding Activity
(§2) Pellets of COS cells containing recombinantly produced D2 or D4 receptors from African Green monkey were used for the assays. The sample is homogenized in 100 volumes (w/vol) of 0.05 M Tris HCl buffer at 4° C. and pH 7.4. The sample is then centrifuged at 30,000×g and resuspended and rehomogenized. The sample is then centrifuged as described and the final tissue sample is frozen until use. The tissue is resuspended 1:20 (wt/vol) in 0.05 M Tris HCl buffer containing 100 mM NaCl.
(§3) Incubations are carried out at 48° C. and contain 0.4 ml of tissue sample, 0.5 nM ^3H-YM 09151-2 and the compound of interest in a total incubation of 1.0 ml. Non-specific binding is defined as that binding found in the presence of […] spiperone; without further additions, nonspecific binding is less than 20% of total binding.

D4 receptors = assay: Assay for D2 and D4 receptor binding activity (COS cells, 3H-YM 09151-2), D4; design: species or system African Green monkey; details: recombinant D4 in COS cells; 0.5 nM 3H-YM 09151-2; read-out: D4 K1
Description: as §1, §2, §3

T1 sequence (P52702 whole entry): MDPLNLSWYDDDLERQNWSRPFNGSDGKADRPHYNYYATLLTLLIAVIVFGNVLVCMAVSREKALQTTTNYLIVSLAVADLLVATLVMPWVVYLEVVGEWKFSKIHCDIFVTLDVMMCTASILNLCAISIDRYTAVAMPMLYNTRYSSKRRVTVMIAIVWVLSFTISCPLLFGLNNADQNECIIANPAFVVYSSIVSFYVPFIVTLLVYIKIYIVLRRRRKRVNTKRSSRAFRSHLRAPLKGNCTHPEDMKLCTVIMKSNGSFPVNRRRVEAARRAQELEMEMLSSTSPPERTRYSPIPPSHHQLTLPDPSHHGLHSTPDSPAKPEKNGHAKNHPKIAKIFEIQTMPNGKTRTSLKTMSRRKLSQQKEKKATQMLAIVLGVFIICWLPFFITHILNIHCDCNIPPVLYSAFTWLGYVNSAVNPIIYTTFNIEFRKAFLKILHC

| melting point [°C] | Ki (D2 receptors) [nM] | Compound | Ki (D4 receptors) [nM] |
| --- | --- | --- | --- |
| 175 to 177 | – | CN(CCCc1ccccc1)CCNC1=NCc2ccccc21 [Compound 3, 1-(N-[2-{N′-(3-phenylpropyl)-N′-methyl}aminoethyl])aminoisoindole dioxolate] | – |
| – | 773 | 1-(1-[3-{(4-Pyridin-2-yl)piperazin-1-yl}]propyl)aminoisoquinoline hydrobromide [Compound 10] | 2 |
| – | 1500 | 1-(1-[2-{(4-[5-Fluoropyrimidin-2-yl])piperazin-1-yl}]ethyl)aminoisoquinoline hydrobromide [Compound 9] | 13 |
